The values below come from patent US11000511B2, “Chemical compounds as antibiotics” (priority 2017, dated 2021).

The target in experiment [1] is T1, purified LasB protein from P. aeruginosa (Pseudomonas aeruginosa, UniProt P14756).
T1 construct: purchased Merck or Charles River Laboratories
The experiment in a line: Fluorometric assay to determine Ki (Assay 1). It is filed as biochemical. As to conditions: Ki (μM) Assay 1, purified LasB, substrate Abz-Ala-Gly-Leu-Ala-p-Nitro-Benzyl-Amide 250 μM, Ki calculated from IC50; inhibitor 0.006 to 200 μM. The method, then: (§1) Experiments were therefore conducted (1) to measure the potency of inhibition of compounds of the invention against purified Pseudomonas aeruginosa LasB enzyme and also experiments were conducted (2) to measure the ability of compounds of the invention to inhibit LasB-catalysed elastin degradation. The first assay uses a commercial fluorescent synthetic peptide and purified LasB enzyme. The LasB hydrolysis kinetics are measured allowing the determination of the IC50 and Ki of the inhibitors; the second is a more physiological assay using dialysed Pseudomonas aeruginosa supernatant as source of enzyme, plus its natural substrate Elastin. It is an “end point assay” that determines the percentage of LasB inhibition by each compound for one particular time point and inhibitor concentration. Technical details are described below:
This assay uses commercially available substrate (Abz-Ala-Gly-Leu-Ala-p-Nitro-Benzyl-Amide (Ex: 340 nm, Em: 415 nm) from Peptide International) and purified LasB protein from P. aeruginosa (provided by Merck or Charles River Laboratories). It is performed to determine LasB elastase activity and assess compound inhibition in 96-well plate format. Some compounds of Formula (I) were assessed using the method of Assay 1 (described below). Other compounds of Formula (I) were assessed using the alternative but equivalent method of Assay 2 (described below).
Method: 10 to 140 ng/ml purified LasB is incubated with 250 μM Abz-Ala-Gly-Leu-Ala-p-Nitro-Benzyl-Amide in 50 mM Tris-HCl pH 7.4, 2.5 mM CaCl2), 0.01% of Triton X100 at 37° C. LasB activity (corresponding to fluorescence emission induced by substrate hydrolysis) is measured over 30 min at 37° C. with a fluorescence plate reader such as the Perkin Elmer Envision or similar. Different range of inhibitor concentrations are routinely assessed depending of inhibitor potency from 0.006 to 200 μM (Assay 1; 2-fold dilutions series) or from 0.0016 to 200 μM (Assay 2; 2-fold dilutions series) in order to determine IC50.
The equation used to calculate the Ki from IC50 is: Ki=IC50/(1+([S]/Km)) where [S]=250 μM and Km=214 μM.

Experiment [2] deals with T2, LasB elastase activity in dialysed supernatant from P. aeruginosa strain PA01 (Pseudomonas aeruginosa, UniProt P14756).
T2 construct: uses as source of enzyme dialysed supernatant from P. aeruginosa; endogenous in cells; host or cells: P. aeruginosa strain PA01 culture supernatant, filtered and dialysed
T2 sequence (P14756 198-498): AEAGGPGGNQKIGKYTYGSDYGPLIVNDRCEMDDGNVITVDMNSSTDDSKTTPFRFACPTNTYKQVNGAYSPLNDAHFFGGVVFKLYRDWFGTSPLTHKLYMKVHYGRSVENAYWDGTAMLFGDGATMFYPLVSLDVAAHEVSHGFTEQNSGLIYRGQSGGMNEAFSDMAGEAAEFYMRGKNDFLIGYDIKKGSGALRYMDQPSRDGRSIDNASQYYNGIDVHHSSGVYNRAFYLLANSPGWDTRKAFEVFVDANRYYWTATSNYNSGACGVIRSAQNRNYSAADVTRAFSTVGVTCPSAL
The experiment in a line: Elastin Congo Red assay to determine % inhibition (Assay 1). It is filed as biochemical. As to conditions: for inhibition at 50 µM: read-out: Elastin hydrolysis % inhibition @ 50/25 μM inhibitor concentration Assay 1. The method, then: as §1
The Elastin assay uses as source of enzyme dialysed supernatant from P. aeruginosa and the elastin congo red as substrate. The natural LasB substrate, elastin, is complexed with the congo red dye (Elastin Congo Red, ECR). The elastolysis activity from the culture supernatant will degrade elastin and release the congo red dye into the supernatant. This red dye release can be measured with a spectrophotometer. Some compounds of Formula (I) were assessed using the method of Assay 1 (described below). Other compounds of Formula (I) were assessed using the alternative but equivalent method of Assay 2 (described below).
Method (Assay 1): To determine LasB elastase activity and assess compound inhibition, an overnight culture of P. aeruginosa strain PA01 is diluted thousand-fold in LB medium. This diluted solution is incubated during 19 hours in a shaking incubator. Culture supernatants are recovered by centrifugation and filtrated through a […] filter. These supernatants are dialysed (filtration molecules <20 kDa) into a 50 mM Tris pH 7.4, 2.5 mM CaCl2 solution at 4° C. under agitation for 24 hours. Supernatant dialysed is then mixed volume/volume with the ECR suspension (20 mg/mL of ECR in 100 mM Tris buffer supplemented with 1 mM CaCl2) supplemented with TritonX 100 (final concentration of 0.01%) in presence of different concentrations of compound (routinely 50 and 25 μM). The mixed reaction is then incubated for 24 hours in a 37° shaking incubator. As a negative control, the mixed supernatant is replaced by Tris solution (50 mM Tris pH 7.4, 2.5 mM CaCl2). The reaction supernatant is recovered by centrifugation and the release of congo red is measured by its absorbance at OD520. Percentage inhibition is determined using the following equation: (OD520 value of DMSO SN−OD520 value of LB)−(OD520 value of Compound SN−OD520 value of LB)/(OD520 value of DMSO SN−OD520 value of LB)×100.

T1 sequence (P14756 198-498): as above

For orientation: Ki means a measure of affinity in units of concentration, obtained from inhibition or displacement. `O=C(O)CC1(C(=O)NCc2ccc3ccccc3n2)Cc2ccccc2C1` [Example 55, 2-(2-((quinolin-2-ylmethyl)carbamoyl)-2,3-dihydro-1H-inden-2-yl)acetic acid]: in experiment [1], the Ki is 0.3 to 2 µM. The inhibition at 50 µM in experiment [2] is above 60%.
For `CN(C)CCNc1ccc2nc(CNC(=O)C3(CC(=O)O)Cc4ccccc4C3)sc2c1` [Example 105, 2-[2-[[6-[2-(dimethylamino)ethylamino]-1,3-benzothiazol-2-yl]methylcarbamoyl]indan-2-yl]acetic acid] the same measures were 0.3 to 2 µM and 30 to 60%.
Turning to `CC(NC(=O)C1(CC(=O)O)Cc2ccccc2C1)c1cc2ccccc2o1` (single isomer, unassigned) [Example 59, 2-[2-[[(1S*)-1-(benzofuran-2-yl)ethyl]carbamoyl]indan-2-yl]acetic acid], in experiment [1], the Ki was 0.3 to 2 µM. The “Elastin hydrolysis % inhibition @ 50/25 μM inhibitor concentration Assay 1” value in experiment [2] (50 μM inhibitor concentration, elastin congo red, 24 hours, OD520) is on record as “B (30 to 60% inhibition)”.
In the case of `CN(C)CCNc1ccc2sc(CNC(=O)C3(CC(=O)O)Cc4ccccc4C3)nc2c1` [Example 76, 2-[2-[[5-[2-(dimethylamino)ethylamino]-1,3-benzothiazol-2-yl]methylcarbamoyl]indan-2-yl]acetic acid], the Ki in experiment [1] is 0.3 to 2 µM. The inhibition at 50 µM in experiment [2] is above 60%.
For `N[C@H]1CCN(c2ccc3nc(CNC(=O)C4(CC(=O)O)Cc5ccccc5C4)sc3c2)C1` [Example 101, 2-[2-[[6-[(3 S)-3-aminopyrrolidin-1-yl]-1,3-benzothiazol-2-yl]methylcarbamoyl]indan-2-yl]acetic acid], the Ki in experiment [1] is 0.3 to 2 µM. Besides, the inhibition at 50 µM in experiment [2] is above 60%.
With `CN1CCC(OC(=O)[C@H](Cc2c[nH]c3ccccc23)NC(=O)C2(CC(=O)O)Cc3ccccc3C2)CC1` [Example 45, 2-(2-{[(2S)-3-(1H-indol-3-yl)-1-[(1-methylpiperidin-4-yl)oxy]-1-oxopropan-2-yl]carbamoyl}-2,3-dihydro-1H-inden-2-yl)acetic acid], in experiment [1], the Ki is below 0.3 µM. Besides, the inhibition at 50 µM in experiment [2] was above 60%.
For the compound `O=C(O)CC1(C(=O)NCC2COc3ccccc3O2)Cc2ccccc2C1` (centres unmarked) [Example 17, 2-[2-(2,3-dihydro-1,4-benzodioxin-3-ylmethylcarbamoyl)indan-2-yl]acetic acid], the Ki in experiment [1] was 0.3 to 2 µM. For the same compound, in experiment [2], the inhibition at 50 µM lay in the range of 30 to 60%.
With `COc1ccc2nc(CNC(=O)C3(CC(=O)O)Cc4ccccc4C3)sc2c1` [Example 32, 2-[2-[(6-methoxy-1,3-benzothiazol-2-yl)methylcarbamoyl]indan-2-yl]acetic acid], in experiment [1], the Ki was below 0.3 µM. Also, the inhibition at 50 µM in experiment [2] is above 60%.
As for `O=C(O)CC1(C(=O)NCc2nc3cc(Cl)ccc3s2)Cc2ccccc2C1` [Example 25, 2-[2-[(5-chloro-1,3-benzothiazol-2-yl)methylcarbamoyl]indan-2-yl]acetic acid], in experiment [1], the Ki was below 0.3 µM. Moreover, the inhibition at 50 µM in experiment [2] is above 60%.
Turning to `O=C(O)CC1(C(=O)NCc2c[nH]c3ccccc23)Cc2ccccc2C1` [Example 26, 2-[2-(1H-indol-3-ylmethylcarbamoyl)indan-2-yl]acetic acid], the inhibition constant (Ki) in experiment [1] is 2 to 10 µM. In addition, the inhibition at 50 µM in experiment [2] lay in the range of 30 to 60%.
For `O=C(O)CC1(C(=O)NCCc2nc3ccccc3[nH]2)Cc2ccccc2C1` [Example 12, 2-[2-[2-(1H-benzimidazol-2-yl)ethylcarbamoyl]indan-2-yl]acetic acid] the same measures were 2 to 10 µM and 15 to 30%.
Turning to `O=C(O)CC1(C(=O)NCc2nc3ccccc3[nH]2)Cc2ccccc2C1` [Example 51, 2-(2-(((1H-benzo[d]imidazol-2-yl)methyl)carbamoyl)-2,3-dihydro-1H-inden-2-yl)acetic], in experiment [1], the Ki is 2 to 10 µM. Besides, the inhibition at 50 µM in experiment [2] is 15 to 30%.
For the compound `N[C@@H]1CCN(c2ccc3sc(CNC(=O)C4(CC(=O)O)Cc5ccccc5C4)nc3c2)C1` [Example 104, 2-[2-[[5-[(3R)-3-aminopyrrolidin-1-yl]-1,3-benzothiazol-2-yl]methylcarbamoyl]indan-2-yl]acetic acid], in experiment [1], the Ki was 0.3 to 2 µM. Further, in experiment [2], the inhibition at 50 µM is above 60%.
For `C[N+](C)(C)CCOc1ccc2sc(CNC(=O)C3(CC(=O)[O-])Cc4ccccc4C3)nc2c1` [Example 113, 2-[2-[[5-[2-(trimethylammonio)ethoxy]-1,3-benzothiazol-2-yl]methylcarbamoyl]indan-2-yl]acetate] the same measures were 0.3 to 2 µM and above 60%.
As to `NCCNc1ccc2nc(CNC(=O)C3(CC(=O)O)Cc4ccccc4C3)sc2c1` [Example 69, 2-[2-[[6-(2-aminoethylamino)-1,3-benzothiazol-2-yl]methylcarbamoyl]indan-2-yl]acetic acid], the Ki in experiment [1] was 0.3 to 2 µM. Also, the inhibition at 50 µM in experiment [2] was above 60%.
For the compound `NCc1nnc([C@H](Cc2c[nH]c3ccccc23)NC(=O)C2(CC(=O)O)Cc3ccccc3C2)o1` [Example 118, (S)-2-(2-((1-(5-(aminomethyl)-1,3,4-oxadiazol-2-yl)-2-(1H-indol-3-yl)ethyl)carbamoyl)-2,3-dihydro-1H-inden-2-yl)acetic acid], in experiment [1], the inhibition constant (Ki) was below 0.3 µM. In experiment [2], the inhibition at 50 µM was above 60%.
In the case of `O=C(O)CC1(C(=O)NCc2cc3ccccc3s2)Cc2ccccc2C1` [Example 23, 2-[2-(benzothiophen-2-ylmethylcarbamoyl)indan-2-yl]acetic acid], in experiment [1], the Ki is below 0.3 µM. In addition, the inhibition at 50 µM in experiment [2] lay in the range of 30 to 60%.
For `Cn1c(CNC(=O)C2(CC(=O)O)Cc3ccccc3C2)nc2ccccc21` [Example 56, 2-(2-(((1-methyl-1H-benzo[d]imidazol-2-yl)methyl)carbamoyl)-2,3-dihydro-1H-inden-2-yl)acetic acid], the Ki in experiment [1] is 0.3 to 2 µM. In addition, the inhibition at 50 µM in experiment [2] was in the range of 30 to 60%.
For `NCCNc1ccc2sc(CNC(=O)C3(CC(=O)O)Cc4ccccc4C3)nc2c1` [Example 72, 2-[2-[[5-(2-aminoethylamino)-1,3-benzothiazol-2-yl]methylcarbamoyl]indan-2-yl]acetic acid] the same measures were 0.3 to 2 µM and above 60%.
For `CN(C)CC#Cc1ccc2sc(CNC(=O)C3(CC(=O)O)Cc4ccccc4C3)nc2c1` [Example 88, 2-[2-[[5-[3-(dimethylamino)prop-1-ynyl]-1,3-benzothiazol-2-yl]methylcarbamoyl]indan-2-yl]acetic acid] the same measures were below 0.3 µM and above 60%.
In the same order, the values of `O=C(O)CC1(C(=O)NCCc2cc3ccccc3o2)Cc2ccccc2C1` [Example 19, 2-[2-[2-(benzofuran-2-yl)ethylcarbamoyl]indan-2-yl]acetic acid] are 2 to 10 µM and 15 to 30%.
On to `CN1CCN(c2ccc3sc(CNC(=O)C4(CC(=O)O)Cc5ccccc5C4)nc3c2)CC1` [Example 106, 2-[2-[[5-(4-methylpiperazin-1-yl)-1,3-benzothiazol-2-yl]methylcarbamoyl]indan-2-yl]acetic acid], for which, in experiment [1], the Ki was below 0.3 µM. The inhibition at 50 µM in experiment [2] is above 60%.
